Assay results taken from US8044029B2, “Sulfatides for treatment of autoimmune disorders” (Torrey Pines Institute for Molecular Studies, priority 2005, dated 2011).

System: chronic-relapsing EAE in SJL/J mice
Experiment: Chronic-relapsing EAE, PLP139-151-immunized SJL/J mice
Type: in vivo, mouse
Settings: 20 μg intraperitoneally at the onset of EAE, FIG. 3
Experimental: (§1) Wild type, SJL/J female mice, 6-8 week of age were immunized once subcutaneously with 75 μg of proteolipid protein peptide PLP139-151 emulsified in incomplete Freund's adjuvant (Difco, Detroit, Mich., USA) supplemented with attenuated M. tuberculosis (DIFCO) to 2 mg/ml. Mice were observed daily for signs of EAE for 50 days. The average disease score for each group was calculated by averaging the maximum severity of all of the affected animals in the group. Disease severity was scored on a 5-point scale, as described earlier: 1, flaccid tail; 2, hind limb weakness; 3, hind limb paralysis; 4, whole body paralysis; 5, moribund or death.
In the treatment protocol, 20 μg of bovine brain sulfatide in 200 μl of PBS or vehicle was given intraperitoneally at the onset of EAE and 2 weeks later. […]
as §1, with “wk” for “week”, “PLP139-151” for “proteolipid protein”, “peptide” for “peptide PLP139-151”, “IFA (DIFCO)” for “incomplete Freund's adjuvant (Difco, Detroit, Mich., USA)”, “Mice were observed daily for signs of EAE for 50 days.” left out, “death. […]” for “death.”

## CCCCCCCC/C=C\CCCCCCCCCCCCCC(=O)N[C@@H](CO[C@@H]1O[C@H](CO)[C@H](O)[C@H](OS(=O)(=O)O)[C@H]1O)[C@H](O)/C=C/CCCCCCCCCCCCC [cis-tetracosenoyl sulfatide, (2S, 3R, 4E)-N-nervonic-1-[-D-(3-sulfate)-galactopyranosyl]-2-amino-octadecene-3-ol]
  effect on ongoing chronic-relapsing EAE (disease score, 5-point scale): reverses ongoing chronic-relapsing EAE
